Here are results for 16 molecules from patent publication US12600710B2, “Beta-catenin and b-cell lymphoma 9 (BCL9) inhibitors” (H. LEE MOFFITT CANCER CENTER AND RESEARCH INSTITUTE, INC., priority 2018, dated 2026).

The structures appear in SMILES notation. Structures can show the parent of a compound that is named as a salt. Where two headings read alike, the source gives them in different places.

The test concerns the target T1, β-catenin/BCL9 PPI (Homo sapiens, UniProt P35222).
T1 construct: Wild-type full-length β-catenin were cloned into a pET-28b vector carrying a C-terminal 6×histidine; made in house; host or cells: Escherichia coli BL21 DE3 (β-catenin); BCL9 peptide chemically synthesized
T1 sequence (P35222 1-781): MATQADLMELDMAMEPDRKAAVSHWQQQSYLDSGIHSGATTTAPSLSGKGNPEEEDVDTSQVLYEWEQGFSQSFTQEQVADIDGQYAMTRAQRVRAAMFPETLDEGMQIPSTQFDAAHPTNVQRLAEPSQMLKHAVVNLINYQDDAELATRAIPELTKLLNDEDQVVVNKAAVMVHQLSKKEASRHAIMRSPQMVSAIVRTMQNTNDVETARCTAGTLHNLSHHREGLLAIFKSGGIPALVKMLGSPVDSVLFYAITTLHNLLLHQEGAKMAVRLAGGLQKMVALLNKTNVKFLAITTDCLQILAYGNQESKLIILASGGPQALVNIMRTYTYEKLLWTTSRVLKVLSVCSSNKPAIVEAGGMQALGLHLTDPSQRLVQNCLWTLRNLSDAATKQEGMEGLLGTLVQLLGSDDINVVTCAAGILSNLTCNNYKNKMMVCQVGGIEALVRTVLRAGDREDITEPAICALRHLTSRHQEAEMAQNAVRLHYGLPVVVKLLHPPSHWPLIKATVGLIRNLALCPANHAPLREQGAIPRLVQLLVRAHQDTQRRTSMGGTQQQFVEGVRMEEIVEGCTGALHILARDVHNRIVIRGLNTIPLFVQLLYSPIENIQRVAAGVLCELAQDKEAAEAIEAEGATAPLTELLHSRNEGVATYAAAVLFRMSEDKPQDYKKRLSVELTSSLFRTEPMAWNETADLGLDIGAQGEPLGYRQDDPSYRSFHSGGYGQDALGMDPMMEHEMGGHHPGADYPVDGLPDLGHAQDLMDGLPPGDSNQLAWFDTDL
As to the kind of experiment: AlphaScreen competitive inhibition assay of the β-catenin/BCL9 PPI. Type of test: binding. The settings on record: mean ± SD, triplicate, Ki derived from IC50 (Nikolovska-Coleska method). The procedure:
AlphaScreen competitive inhibition assays. For the competitive inhibition assays of the β-catenin/BCL9 PPI, the negative control (equivalent to 0% inhibition) refers to 5.0 nM of biotinylated BCL9, 40 nM of His6-tagged β-catenin, and 10 μg/mL of donor and acceptor beads in a final volume of 25 μL assay buffer, but no tested inhibitor present. The positive control (equivalent to 100% inhibition) refers to 5.0 nM of biotinylated BCL9 and 10 μg/mL of donor and acceptor beads in a final volume of 25 μL assay buffer.
For the β-catenin/BCL9 assay, 5 nM of biotinylated BCL9 and 40 nM of His6-tagged β-catenin were incubated in assay buffer at 4° C. for 30 min. Different concentrations of the tested inhibitor were added and incubated in 20 μL assay buffer at 4° C. for another 1 h. All of the above assay plates were covered and gently mixed on an orbital shaker. The donor and acceptor beads were then added to the plates to a final concentration of 10 μg/mL in 25 μL assay buffer. The mixture was incubated for 1 h at 4° C. before detection. The IC50 value was determined by nonlinear least-square analysis of GraphPad Prism 5.0. The Ki values were derived from the IC50 values using a method reported by Nikolovska-Coleska et al (Nikolovska-Coleska, Z.; Wang, R.; Fang, X.; Pan, H.; Tomita, Y.; Li, P.; Roller, P. P.; Krajewski, K.; Saito, N. G.; Stuckey, J. A.; Wang, S. Development and optimization of a binding assay for the XIAP BIR3 domain using fluorescence polarization. Anal. Biochem. 2004, 332, 261-273). The assays were conducted under the conditions required by Nikolovska-Coleska et al.'s equation for determining the Ki values. All of the experiments were performed in triplicate. The results were expressed as mean±standard deviation.
Background: Alpha assays give light when donor and acceptor beads are brought close together.

Setting [1] is: Example 1 compounds, experiment 3, read-out: Ki (μM ± SD) experiment 3.
[2] abbreviates: Example 1 compounds, experiment 4, read-out: Ki (μM ± SD) experiment 4.
Where [3] appears, read: Example 2 compounds, experiment 1, read-out: Ki (μM ± SD) experiment 1.
Where [4] appears, read: Example 2 compounds, experiment 2, read-out: Ki (μM ± SD) experiment 2.

A word on the Ki: it is the dissociation constant of the complex between target and ligand, obtained from inhibition or displacement. As for `CC(=O)Nc1cc(F)cc(C(=O)N2CCN(C(=O)c3ccc(O[C@H]4CCNC4)c(C4CCCCC4)c3)C(C(=O)NC(C)C)C2)c1` (stereo partly drawn) [Compound 21, 4-(3-Acetamido-5-fluorobenzoyl)-1-(3-cyclohexyl-4-(((S)-pyrrolidin-3-yl)oxy)benzoyl)-N-isopropylpiperazine-2-carboxamide trifluoroacetate], the Ki is 410 ± 41 µM under setting [1] and 700 ± 73 µM under setting [2]. As for `CC(=O)Nc1cc(F)cc(C(=O)N2CCN(C(=O)c3ccc(O[C@H]4CCNC4)c(C4CCCCC4)c3)C(C(=O)NCC(C)C)C2)c1` (stereo partly drawn) [Compound 23, 4-(3-Acetamido-5-fluorobenzoyl)-1-(3-cyclohexyl-4-(((S)-pyrrolidin-3-yl)oxy)benzoyl)-N-isobutylpiperazine-2-carboxamide trifluoroacetate], the Ki reads like this: under setting [1], above 1000 µM; under setting [2], above 1000 µM. On to `CN(C)Cc1cn(Cc2cc(F)cc(OC3CCN(C(=O)c4ccc(O[C@H]5CCNC5)c(C5CCCCC5)c4)CC3)c2)nn1` [Compound 4, (S)-(3-cyclohexyl-4-(pyrrolidin-3-yloxy)phenyl) (4-(3-((4-((dimethylamino)methyl)-1H-1,2,3-triazol-1-yl)methyl)-5-fluorophenoxy)piperidin-1-yl) methanone dihydrochloride], for which the Ki under setting [3] worked out at 41.4 ± 4.33 µM. With `CNC(=O)C1CN(C(=O)c2cc(F)cc(NC(C)=O)c2)CCN1C(=O)c1ccc(O[C@H]2CCNC2)c(C2CCCCC2)c1` (stereo partly drawn) [Compound 17, 4-(3-Acetamido-5-fluorobenzoyl)-1-(3-cyclohexyl-4-(((S)-pyrrolidin-3-yl)oxy)benzoyl)-N-methylpiperazine-2-carboxamide trifluoroacetate], the Ki was determined as 200 ± 20 µM under setting [1] and 140 ± 17 µM under setting [2]. For `CCN(C)C(=O)C1CN(C(=O)c2cc(F)cc(NC(C)=O)c2)CCN1C(=O)c1ccc(O[C@H]2CCNC2)c(C2CCCCC2)c1` (stereo partly drawn) [Compound 20, 4-(3-Acetamido-5-fluorobenzoyl)-1-(3-cyclohexyl-4-(((S)-pyrrolidin-3-yl)oxy)benzoyl)-N-ethyl-N-methylpiperazine-2-carboxamide trifluoroacetate], the Ki by setting is: under setting [1], 190 ± 18 µM; under setting [2], 170 ± 29 µM. As to `NCCC(=O)NCc1cc(F)cc(OC2CCN(C(=O)c3ccc(O[C@H]4CCNC4)c(C4CCCCC4)c3)CC2)c1` [Compound 7, 3-Amino-N-(3-((1-(3-cyclohexyl-4-(pyrrolidin-3-yloxy)benzoyl)piperidin-4-yl)oxy)-5-fluorobenzyl) propanamide dihydrochloride], the Ki was 84.7 ± 11.8 µM under setting [3] and 125 ± 13.2 µM under setting [4]. `O=C(c1ccc(O[C@H]2CCNC2)c(C2CCCCC2)c1)N1CCC(Oc2cc(F)cc(N3CCNCC3=O)c2)CC1` [Compound 2, (S)-1-(3-((1-(3-cyclohexyl-4-(pyrrolidin-3-yloxy)benzoyl)piperidin-4-yl)oxy)-5-fluorophenyl) piperazin-2-one dihydrochloride]: the Ki was 496 ± 39.7 µM under setting [3] and above 90 µM under setting [4]. Turning to `CC(=O)Nc1cc(F)cc(C(=O)N2CCN(C(=O)c3ccc(O[C@H]4CCNC4)c(C4CCCCC4)c3)C(C(=O)N(C)C(C)C)C2)c1` (stereo partly drawn) [Compound 22, 4-(3-Acetamido-5-fluorobenzoyl)-1-(3-cyclohexyl-4-(((S)-pyrrolidin-3-yl)oxy)benzoyl)-N-isopropyl-N-methylpiperazine-2-carboxamide trifluoroacetate], the Ki by setting is: under setting [1], above 1000 µM; under setting [2], above 1000 µM. Turning to `NCc1cn(-c2cc(F)cc(C(=O)N3CCN(C(=O)c4ccc(O[C@H]5CCNC5)c(C5CCCCC5)c4)CC3)c2)nn1` [Compound 30, (S)-(4-(3-(4-(aminomethyl)-1H-1,2,3-triazol-1-yl)-5-fluorobenzoyl)piperazin-1-yl) (3-cyclohexyl-4-(pyrrolidin-3-yloxy)phenyl) methanone ditrifluoroacetate], the Ki (Example 1 compounds, experiment 1, read-out: Ki (μM ± SD) experiment 1) is 110 ± 15 µM and the Ki (Example 1 compounds, experiment 2, read-out: Ki (μM ± SD) experiment 2) turned out to be 560 ± 71 µM. Regarding `CC(=O)Nc1cc(F)cc(C(=O)N2CCN(C(=O)c3ccc(O[C@H]4CCNC4)c(C4CCCCC4)c3)C(C(=O)Nc3ccccc3)C2)c1` (stereo partly drawn) [Compound 27, 4-(3-Acetamido-5-fluorobenzoyl)-1-(3-cyclohexyl-4-(((S)-pyrrolidin-3-yl)oxy)benzoyl)-N-phenylpiperazine-2-carboxamide trifluoroacetate], the Ki reads like this: under setting [1], 130 ± 22 µM; under setting [2], 580 ± 83 µM. `CCNC(=O)C1CN(C(=O)c2cc(F)cc(NC(C)=O)c2)CCN1C(=O)c1ccc(O[C@H]2CCNC2)c(C2CCCCC2)c1` (stereo partly drawn) [Compound 19, 4-(3-Acetamido-5-fluorobenzoyl)-1-(3-cyclohexyl-4-(((S)-pyrrolidin-3-yl)oxy)benzoyl)-N-ethylpiperazine-2-carboxamide trifluoroacetate]: the Ki was 110 ± 16 µM under setting [1] and 240 ± 27 µM under setting [2]. Turning to `CC(C)(CN)C(=O)NCc1cc(F)cc(OC2CCN(C(=O)c3ccc(O[C@H]4CCNC4)c(C4CCCCC4)c3)CC2)c1` [Compound 8, (S)-3-amino-N-(3-((1-(3-cyclohexyl-4-(pyrrolidin-3-yloxy)benzoyl)piperidin-4-yl)oxy)-5-fluorobenzyl)-2,2-dimethylpropanamide dihydrochloride], the Ki by setting is: under setting [3], 162 ± 19.6 µM; under setting [4], 162 ± 17.4 µM. On to `CC(=O)Nc1cc(F)cc(C(=O)N2CCN(C(=O)c3ccc(O[C@H]4CCNC4)c(C4CCCCC4)c3)C(C(=O)NCc3ccccc3)C2)c1` (stereo partly drawn) [Compound 28, 4-(3-Acetamido-5-fluorobenzoyl)-N-benzyl-1-(3-cyclohexyl-4-(((S)-pyrrolidin-3-yl)oxy)benzoyl) piperazine-2-carboxamide trifluoroacetate], for which the inhibitory constant (Ki) reads like this: under setting [1], 660 ± 110 µM; under setting [2], 600 ± 89 µM.

In the case of `NCCC(=O)Nc1cc(F)cc(OC2CCN(C(=O)c3ccc(OC4CCNC4)c(C4CCCCC4)c3)CC2)c1` (stereo not shown) [Compound 5, 3-amino-N-(3-((1-(3-cyclohexyl-4-(pyrrolidin-3-yloxy)benzoyl)piperidin-4-yl)oxy)-5-fluorophenyl)propanamide dihydrochloride], the Ki worked out at 24.4 ± 3.18 µM under setting [3] and 25.9 ± 2.45 µM under setting [4]. As for `CC(=O)Nc1cc(F)cc(C(=O)N2CCN(C(=O)c3ccc(O[C@H]4CCNC4)c(C4CCCCC4)c3)C(C(=O)NC3CCCCC3)C2)c1` (stereo partly drawn) [Compound 25, 4-(3-Acetamido-5-fluorobenzoyl)-N-cyclohexyl-1-(3-cyclohexyl-4-(((S)-pyrrolidin-3-yl)oxy)benzoyl) piperazine-2-carboxamide trifluoroacetate], the Ki is 390 ± 78 µM under setting [1] and above 1000 µM under setting [2]. Consider `CC(=O)Nc1cc(F)cc(C(=O)N2CCN(C(=O)c3ccc(O[C@H]4CCNC4)c(C4CCCCC4)c3)C(C(=O)N(C)Cc3ccccc3)C2)c1` (stereo partly drawn) [Compound 29, 4-(3-Acetamido-5-fluorobenzoyl)-N-benzyl-1-(3-cyclohexyl-4-(((S)-pyrrolidin-3-yl)oxy)benzoyl)-N-methylpiperazine-2-carboxamide trifluoroacetate], for which the Ki reads like this: under setting [1], 560 ± 120 µM; under setting [2], 740 ± 150 µM.
